Laboratory results from US20210261507A1, “Crystalline Form of Fluopyram” (Bayer Aktiengesellschaft, priority 2018, published 2021).
Values joined by “and” are separate entries in the source; they are usually repeats but may differ in a detail not shown here. Equal entries are not always repeated.

Legend:
Format in all cases: physicochemical
[1] = Aspect ratio of crystals measured from microscopic images of suspension concentrate formulations; conditions: for Aspect ratio, mean: mean of 10 crystals, tables 5.1 to 5.4; for Crystal shape (FIGS. 3a-3d): microscopic images
Description: In an example the aspect ratio for crystals of fluopyram and other different active ingredients was measured from microscopic images taken from suspension concentrate formulations after crystal growth had occurred, diluted to approximately 1% in water. For the purpose of this invention the length is defined as the longest dimension and the width as the shortest dimension of a 2-dimensional image obtained in a transmission optical microscope. The aspect ratio was determine by the dividing the length by the width.

[2] = Ageing of fluopyram suspension concentrate, crystal habit; conditions: 500 g/L suspension concentrate, 1 month at 40 to 45° C.
Description: In an example 500 g/L of fluopyram crystalline active ingredient was added to a mixture of 65 g/L wetters and dispersants, 80 g/L propylene glycol, 2 g/L silicone antifoam in 432 g/L with high shear mixing (Ultra-Turrax®) to reduce the particle size D(v,0.9) to approximately 50 microns, then passed through a bead mill (Eiger® 250 Mini Motormill) to achieve a particles size D(v,0.9) typically 1 to 15 microns. Then a gel composed of 2.4 g/L xanthan and 1 g/L biocide in 117 g/L water was added with low shear mixing (stirrer).

[3] = EC formulation diluted in water and evaporated on the leaf surface, crystal habit; conditions: dilution at 1% in water
Description: In an example an EC formulation was prepared by dissolving 1 to 500 g/L of fluopyram in a mixture comprising a certain amount of emulsifiers and a certain amount of solvent.

[4] = Table 6, crystals present in suspension concentrate formulations, from tables 5.1 to 5.4

Structure (SMILES) | Aspect ratio [1, 4] | Aspect ratio, mean [1] | Crystal shape (FIGS. 3a-3d) [1] | Aspect ratio ([1]; single crystals, length divided by width) | Crystal appearance after ageing [2] | Crystals produced after dilution and evaporation [3]
CC(C)(C)C(O)(CCc1ccc(Cl)cc1)Cn1cncn1 (stereo not drawn) [tebuconazole] | 1.15 | 1.15 | cubic shaped forms | 1.00 and 1.20 and 1.30 and 1.02 and 1.22 and 0.83 and 1.07 and 1.44 |  | 
CON=C(C(=O)OC)c1ccccc1CON=C(C)c1cccc(C(F)(F)F)c1 [trifloxystrobin] | 1.25 | 1.25 | cubic shaped forms |  |  | 
O=C(NCCc1ncc(C(F)(F)F)cc1Cl)c1ccccc1C(F)(F)F [fluopyram, N-{2-[3-chloro-5-(trifluoromethyl)-2-pyridyl]ethyl}-α,α,α-trifluoro-o-tolu amide] | 12.02 | 12.02 | needle-like habit |  | needle-like appearance | needle shaped crystals
Cc1cc(C)nc(Nc2ccccc2)n1 [pyrimethanil] | 1.44 | 1.44 | cubic shaped forms |  |  | 
